Tests used:
Assay type in all cases: biochemical
vcASADH = vcASADH (Vibrio cholerae, UniProt Q9KQG2); experiment: ASADH kinetic assay
spASADH [1] = conditions: ratio of Ki vcASADH / spASADH
spASADH [2] = target: T1, spASADH (Streptococcus pneumoniae, UniProt Q8DQ00)
T1 sequence (Q8DQ00 1-358): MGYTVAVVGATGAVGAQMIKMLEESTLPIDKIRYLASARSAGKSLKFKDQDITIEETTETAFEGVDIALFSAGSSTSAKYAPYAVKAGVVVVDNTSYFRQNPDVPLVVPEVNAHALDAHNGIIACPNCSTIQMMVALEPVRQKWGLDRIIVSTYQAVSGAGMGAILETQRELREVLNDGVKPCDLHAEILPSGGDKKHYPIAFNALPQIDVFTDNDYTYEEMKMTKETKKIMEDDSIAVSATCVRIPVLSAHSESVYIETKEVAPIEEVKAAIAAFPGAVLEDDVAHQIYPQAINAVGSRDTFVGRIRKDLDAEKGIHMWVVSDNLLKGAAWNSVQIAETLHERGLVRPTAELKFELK

vcASADH, sequence (Q9KQG2 whole entry): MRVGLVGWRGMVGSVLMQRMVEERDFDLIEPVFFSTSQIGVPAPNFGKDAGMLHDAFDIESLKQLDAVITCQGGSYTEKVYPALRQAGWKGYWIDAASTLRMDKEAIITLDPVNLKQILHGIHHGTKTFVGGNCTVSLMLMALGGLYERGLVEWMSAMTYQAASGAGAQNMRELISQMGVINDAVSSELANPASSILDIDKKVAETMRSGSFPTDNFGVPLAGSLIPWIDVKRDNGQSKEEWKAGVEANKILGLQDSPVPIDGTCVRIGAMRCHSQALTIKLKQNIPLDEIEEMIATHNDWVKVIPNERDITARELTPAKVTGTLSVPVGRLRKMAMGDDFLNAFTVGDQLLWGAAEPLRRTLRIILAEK

Structure (SMILES): CN(CC(=O)[O-])Cc1cccc(C(=O)[O-])c1C(=O)[O-].[Na+].[Na+].[Na+] [compound 9, N-methyl, N-carboxymethyl-2,3-dicarboxybenzylamine]
- inhibition of vcASADH (in words) (vcASADH): no inhibition

Structure (SMILES): CC(C)(C)c1ccc(CN(CC(=O)[O-])Cc2ccc(C(=O)[O-])c(C(=O)[O-])c2)cc1.[Na+].[Na+].[Na+] [compound 33, N-(4-t-butylbenzyl)-N-carboxymethyl-3,4-dicarboxybenzylamine]
- selectivity for spASADH relative to vcASADH (spASADH [1]): over 40 fold

Structure (SMILES): NC(=O)c1ccc(CN(CC(=O)[O-])Cc2ccc(C(=O)[O-])c(C(=O)[O-])c2)cc1.[Na+].[Na+].[Na+] [compound 32, N-(4-carboxamidebenzyl)-N-carboxymethyl-3,4-dicarboxybenzylamine]
- loss of affinity (spASADH [2]; carboxamide (32) relative to p-carboxylbenzyl derivative (31)): 3 fold

Structure (SMILES): O=C([O-])CN(Cc1ccc(C(=O)[O-])c(C(=O)[O-])c1)c1ccc(-c2ccccc2)cc1.[Na+].[Na+].[Na+] [compound 17, N-(4-biphenyl)-N-carboxymethyl-3,4-dicarboxybenzylamine]
- improved inhibition of spASADH relative to the parent benzyl derivative (spASADH [2]; relative to parent benzyl derivative (13)): 25 fold

Structure (SMILES): O=C([O-])CCNCc1ccc(C(=O)[O-])c(C(=O)[O-])c1.[Na+].[Na+].[Na+] [compound 4, N-carboxyethyl-3,4-dicarboxybenzylamine]
- inhibition of vcASADH (in words) (vcASADH): did not show appreciable inhibition
